In patent publication US20250108036A1, “COMPOSITIONS FOR REMOVING SENESCENT CELLS AND USES THEREOF” (LIFECEUTIX CO., LTD., priority 2021, published 2025):

Tested on: SA-β-gal
Assay: SA-β-gal staining of tissues of doxorubicin-aged mice (Example 8-3)
Format: in vivo, C57BL6J mice
Conditions: stained area; doxorubicin-aged mice, LX-112 70 mg/kg oral daily 21 days
Method: After adapting 8-week-old male C57BL6J mice (purchased from KRIBB Laboratory Animal Resource Center) to the experimental environment for 1 week, doxorubicin, an anticancer drug, was administered intraperitoneally at a concentration of 10 mg/kg, and mice that were induced to age for more than 10 days were assigned to an experimental group and a control group. LX-112 was mixed with 0.5% CMC-Na solution (purchased from Sigma) and administered orally at a concentration of 70 mg/kg daily for 21 days. The control group was administered only the solution in the same volume. After drug administration was completed, the method described in each Example below was performed.
Mice were sacrificed in the same method in described in Example 7-3, and tissue sections were prepared from the organ tissues of each region. SA-β-gal, an aging marker was stained. […] FIG. 3 is a photographic result of staining of adipose tissue.

SMILES: O=c1c2ccccc2[se]n1CCn1[se]c2ccccc2c1=O [LX-112, 1,2-[bis(1,2-benzisoselenazolone-3(2H)-ketone)]ethane]
- SA-β-gal (%) Kidney: 69.2 (±10.2) %
- SA-β-gal (%) Liver: 67.4 (±9.9) %
- SA-β-gal (%) Lung: 64.2 (±9.2) %
- SA-β-gal (%) eWAT: 51.4 (±13.4) %
